# Measured values from PubChem BioAssay AID2060624 (Molecular Pharmacology Branch, DTP, NCI, 2025).
# Test system: 217524-143-R1-J4-PDC spheroids with HUVEC/MSC, viability
# Experiment: Anticancer human tumor 217524-143-R1-J4-PDC patient-derived pancreatic carcinoma cell line growth inhibition [CLK]
# Details: for IC50: curve of first compound; for viability, T/C: stronger effect = lower value
# Summary of the method: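 Multi-cell-type spheroids combined patient-derived tumor cells with HUVEC endothelial cells and human mesenchymal stem cells. Paired agents were dosed in half-log steps down from about clinical Cmax, or from 10 microM where Cmax was unknown.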
# [1] = second compound 0.0316 µM, first compound 0.00949 µM
# [2] = second compound 0.0316 µM, first compound 0.03 µM
# [3] = second compound 0.0316 µM, first compound 0.0949 µM
# [4] = second compound 0.0316 µM, first compound 0.3 µM
# [5] = second compound 0.1 µM, first compound 0.00949 µM
# [6] = second compound 0.1 µM, first compound 0.03 µM
# [7] = second compound 0.1 µM, first compound 0.0949 µM
# [8] = second compound 0.1 µM, first compound 0.3 µM
# [9] = second compound 0.316 µM, first compound 0.00949 µM
# [10] = second compound 0.316 µM, first compound 0.03 µM
# [11] = second compound 0.316 µM, first compound 0.0949 µM
# [12] = second compound 0.316 µM, first compound 0.3 µM
# [13] = second compound 1 µM, first compound 0.00949 µM
# [14] = second compound 1 µM, first compound 0.03 µM
# [15] = second compound 1 µM, first compound 0.0949 µM
# [16] = second compound 1 µM, first compound 0.3 µM
# [17] = second compound 3.16 µM, first compound 0.00949 µM
# [18] = second compound 3.16 µM, first compound 0.03 µM
# [19] = second compound 3.16 µM, first compound 0.0949 µM
# [20] = second compound 3.16 µM, first compound 0.3 µM
# [21] = second compound 10 µM, first compound 0.00949 µM
# [22] = second compound 10 µM, first compound 0.03 µM
# [23] = second compound 10 µM, first compound 0.0949 µM
# [24] = second compound 10 µM, first compound 0.3 µM
# [25] = second compound 0.0316 µM, first compound 0.0316 µM
# [26] = second compound 0.0316 µM, first compound 0.1 µM
# [27] = second compound 0.0316 µM, first compound 0.316 µM
# [28] = second compound 0.0316 µM, first compound 1 µM
# [29] = second compound 0.0316 µM, first compound 3.16 µM
# [30] = second compound 0.0316 µM, first compound 10 µM
# [31] = second compound 0.1 µM, first compound 0.0316 µM
# [32] = second compound 0.1 µM, first compound 0.1 µM
# [33] = second compound 0.1 µM, first compound 0.316 µM
# [34] = second compound 0.1 µM, first compound 1 µM
# [35] = second compound 0.1 µM, first compound 3.16 µM
# [36] = second compound 0.1 µM, first compound 10 µM
# [37] = second compound 0.316 µM, first compound 0.0316 µM
# [38] = second compound 0.316 µM, first compound 0.1 µM
# [39] = second compound 0.316 µM, first compound 0.316 µM
# [40] = second compound 0.316 µM, first compound 1 µM
# [41] = second compound 0.316 µM, first compound 3.16 µM
# [42] = second compound 0.316 µM, first compound 10 µM
# [43] = second compound 1 µM, first compound 0.0316 µM
# [44] = second compound 1 µM, first compound 0.1 µM
# [45] = second compound 1 µM, first compound 0.316 µM
# [46] = second compound 1 µM, first compound 1 µM
# [47] = second compound 1 µM, first compound 3.16 µM
# [48] = second compound 1 µM, first compound 10 µM
# [49] = second compound 3.16 µM, first compound 0.0316 µM
# [50] = second compound 3.16 µM, first compound 0.1 µM
# [51] = second compound 3.16 µM, first compound 0.316 µM
# [52] = second compound 3.16 µM, first compound 1 µM
# [53] = second compound 3.16 µM, first compound 3.16 µM
# [54] = second compound 3.16 µM, first compound 10 µM
# [55] = second compound 10 µM, first compound 0.0316 µM
# [56] = second compound 10 µM, first compound 0.1 µM
# [57] = second compound 10 µM, first compound 0.316 µM
# [58] = second compound 10 µM, first compound 1 µM
# [59] = second compound 10 µM, first compound 3.16 µM
# [60] = second compound 10 µM, first compound 10 µM
# 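Further: spheroids exposed to agents for seven days before reading.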
# 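Wherever viability, T/C is given: 100% = DMSO vehicle control viability.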
compound,measurement,setting,value
CC(C)CC(NC(=O)C(Cc1ccccc1)NC(=O)c1cnccn1)B(O)O (stereo not drawn) + CNC(=O)c1ccc(Nc2nc(OC3CCCC3)c3c(-c4ccc5nc(C)oc5c4)c[nH]c3n2)c(OC)c1,IC50,second compound 0.0316 µM,5.06 nM
same,IC50,second compound 0.1 µM,3.04 nM
same,IC50,second compound 0.316 µM,< 0.949 nM
same,IC50,second compound 1 µM,< 0.949 nM
same,IC50,second compound 3.16 µM,< 0.949 nM
same,IC50,second compound 10 µM,< 0.949 nM
same,"viability, T/C","second compound 0.0316 µM, first compound 0.000949 µM",90.4%
same,"viability, T/C","second compound 0.0316 µM, first compound 0.003 µM",71.8%
same,"viability, T/C",[1],23.7%
same,"viability, T/C",[2],6.76%
same,"viability, T/C",[3],3.97%
same,"viability, T/C",[4],1.1%
same,"viability, T/C","second compound 0.1 µM, first compound 0.000949 µM",45.6%
same,"viability, T/C","second compound 0.1 µM, first compound 0.003 µM",55.1%
same,"viability, T/C",[5],17.5%
same,"viability, T/C",[6],5.06%
same,"viability, T/C",[7],2.97%
same,"viability, T/C",[8],1.89%
same,"viability, T/C","second compound 0.316 µM, first compound 0.000949 µM",40.3%
same,"viability, T/C","second compound 0.316 µM, first compound 0.003 µM",47.1%
same,"viability, T/C",[9],18.7%
same,"viability, T/C",[10],4.6%
same,"viability, T/C",[11],3.43%
same,"viability, T/C",[12],2.04%
same,"viability, T/C","second compound 1 µM, first compound 0.000949 µM",29.1%
same,"viability, T/C","second compound 1 µM, first compound 0.003 µM",38.5%
same,"viability, T/C",[13],7.88%
same,"viability, T/C",[14],2.84%
same,"viability, T/C",[15],2.06%
same,"viability, T/C",[16],1.44%
same,"viability, T/C","second compound 3.16 µM, first compound 0.000949 µM",25.7%
same,"viability, T/C","second compound 3.16 µM, first compound 0.003 µM",41.2%
same,"viability, T/C",[17],5.46%
same,"viability, T/C",[18],2.33%
same,"viability, T/C",[19],1.76%
same,"viability, T/C",[20],1.27%
same,"viability, T/C","second compound 10 µM, first compound 0.000949 µM",24.6%
same,"viability, T/C","second compound 10 µM, first compound 0.003 µM",34.8%
same,"viability, T/C",[21],6.06%
same,"viability, T/C",[22],2.66%
same,"viability, T/C",[23],1.59%
same,"viability, T/C",[24],0.75%
CC1(C)CCC(CN2CCN(c3ccc(C(=O)NS(=O)(=O)c4ccc(NCC5CCOCC5)c([N+](=O)[O-])c4)c(Oc4cnc5[nH]ccc5c4)c3)CC2)=C(c2ccc(Cl)cc2)C1 + CNC(=O)c1ccc(Nc2nc(OC3CCCC3)c3c(-c4ccc5nc(C)oc5c4)c[nH]c3n2)c(OC)c1,IC50,second compound 0.0316 µM,> 10000 nM
same,IC50,second compound 0.1 µM,< 31.6 nM
same,IC50,second compound 0.316 µM,< 31.6 nM
same,IC50,second compound 1 µM,< 31.6 nM
same,IC50,second compound 3.16 µM,< 31.6 nM
same,IC50,second compound 10 µM,< 31.6 nM
same,"viability, T/C",[25],86.2%
same,"viability, T/C",[26],87.7%
same,"viability, T/C",[27],81.2%
same,"viability, T/C",[28],79%
same,"viability, T/C",[29],88.5%
same,"viability, T/C",[30],79.3%
same,"viability, T/C",[31],42.1%
same,"viability, T/C",[32],45%
same,"viability, T/C",[33],38.1%
same,"viability, T/C",[34],46.1%
same,"viability, T/C",[35],39.1%
same,"viability, T/C",[36],37.7%
same,"viability, T/C",[37],34.1%
same,"viability, T/C",[38],40.7%
same,"viability, T/C",[39],38.7%
same,"viability, T/C",[40],38.2%
same,"viability, T/C",[41],36.9%
same,"viability, T/C",[42],37.1%
same,"viability, T/C",[43],24.4%
same,"viability, T/C",[44],29.3%
same,"viability, T/C",[45],31.6%
same,"viability, T/C",[46],27.4%
same,"viability, T/C",[47],31.4%
same,"viability, T/C",[48],25.9%
same,"viability, T/C",[49],27.4%
same,"viability, T/C",[50],28.9%
same,"viability, T/C",[51],24.1%
same,"viability, T/C",[52],27.2%
same,"viability, T/C",[53],29.1%
same,"viability, T/C",[54],22.3%
same,"viability, T/C",[55],23.1%
same,"viability, T/C",[56],25.7%
same,"viability, T/C",[57],24.9%
same,"viability, T/C",[58],26.4%
same,"viability, T/C",[59],26.7%
same,"viability, T/C",[60],24.9%
CC1COCCN1c1cc(C2(S(C)(=N)=O)CC2)nc(-c2ccnc3[nH]ccc23)n1 (stereo not drawn) + CNC(=O)c1ccc(Nc2nc(OC3CCCC3)c3c(-c4ccc5nc(C)oc5c4)c[nH]c3n2)c(OC)c1,IC50,second compound 0.0316 µM,1970 nM
same,IC50,second compound 0.1 µM,< 31.6 nM
same,IC50,second compound 0.316 µM,< 31.6 nM
same,IC50,second compound 1 µM,< 31.6 nM
same,IC50,second compound 3.16 µM,< 31.6 nM
same,IC50,second compound 10 µM,< 31.6 nM
same,"viability, T/C",[25],85.7%
same,"viability, T/C",[26],93.5%
same,"viability, T/C",[27],71.4%
same,"viability, T/C",[28],76.3%
same,"viability, T/C",[29],31.8%
same,"viability, T/C",[30],22.5%
same,"viability, T/C",[31],36.8%
same,"viability, T/C",[32],43.5%
same,"viability, T/C",[33],37.8%
same,"viability, T/C",[34],29.2%
same,"viability, T/C",[35],26.5%
same,"viability, T/C",[36],19.7%
same,"viability, T/C",[37],42.2%
same,"viability, T/C",[38],32.4%
same,"viability, T/C",[39],34.4%
same,"viability, T/C",[40],28.1%
same,"viability, T/C",[41],20.1%
same,"viability, T/C",[42],15.1%
same,"viability, T/C",[43],29.9%
same,"viability, T/C",[44],27.7%
same,"viability, T/C",[45],28.9%
same,"viability, T/C",[46],18.1%
same,"viability, T/C",[47],16.3%
same,"viability, T/C",[48],12.3%
same,"viability, T/C",[49],26.7%
same,"viability, T/C",[50],26%
same,"viability, T/C",[51],24.7%
same,"viability, T/C",[52],20.2%
same,"viability, T/C",[53],10.9%
same,"viability, T/C",[54],9.73%
same,"viability, T/C",[55],28.1%
same,"viability, T/C",[56],26.4%
same,"viability, T/C",[57],21.7%
same,"viability, T/C",[58],17.6%
same,"viability, T/C",[59],12.9%
same,"viability, T/C",[60],8.77%
NC(=O)C(=Cn1cnc(-c2cc(C(F)(F)F)cc(C(F)(F)F)c2)n1)c1cncnc1 + CNC(=O)c1ccc(Nc2nc(OC3CCCC3)c3c(-c4ccc5nc(C)oc5c4)c[nH]c3n2)c(OC)c1,IC50,second compound 0.0316 µM,16.6 nM
same,IC50,second compound 0.1 µM,< 9.49 nM
same,IC50,second compound 0.316 µM,< 9.49 nM
same,IC50,second compound 1 µM,< 9.49 nM
same,IC50,second compound 3.16 µM,< 9.49 nM
same,IC50,second compound 10 µM,< 9.49 nM
same,"viability, T/C",[1],60.5%
same,"viability, T/C",[2],38.8%
same,"viability, T/C",[3],22.9%
same,"viability, T/C",[4],25.2%
same,"viability, T/C","second compound 0.0316 µM, first compound 0.949 µM",26.6%
same,"viability, T/C","second compound 0.0316 µM, first compound 3 µM",20.1%
same,"viability, T/C",[5],29.9%
same,"viability, T/C",[6],28.1%
same,"viability, T/C",[7],21%
same,"viability, T/C",[8],24.4%
same,"viability, T/C","second compound 0.1 µM, first compound 0.949 µM",23%
same,"viability, T/C","second compound 0.1 µM, first compound 3 µM",18.7%
same,"viability, T/C",[9],23.2%
same,"viability, T/C",[10],18.9%
same,"viability, T/C",[11],16.9%
same,"viability, T/C",[12],17.7%
same,"viability, T/C","second compound 0.316 µM, first compound 0.949 µM",18.9%
same,"viability, T/C","second compound 0.316 µM, first compound 3 µM",13.2%
same,"viability, T/C",[13],18.8%
same,"viability, T/C",[14],12.9%
same,"viability, T/C",[15],11.7%
same,"viability, T/C",[16],11.5%
same,"viability, T/C","second compound 1 µM, first compound 0.949 µM",10.9%
same,"viability, T/C","second compound 1 µM, first compound 3 µM",8.56%
same,"viability, T/C",[17],14.1%
same,"viability, T/C",[18],12.6%
same,"viability, T/C",[19],9.81%
same,"viability, T/C",[20],8.7%
same,"viability, T/C","second compound 3.16 µM, first compound 0.949 µM",6.96%
same,"viability, T/C","second compound 3.16 µM, first compound 3 µM",6.45%
same,"viability, T/C",[21],14.2%
same,"viability, T/C",[22],12%
same,"viability, T/C",[23],9.72%
same,"viability, T/C",[24],7.3%
same,"viability, T/C","second compound 10 µM, first compound 0.949 µM",6.09%
same,"viability, T/C","second compound 10 µM, first compound 3 µM",5.49%
